In test [1] the test system is Escherichia coli (ATCC # 25922). As to the kind of experiment: Broth microdilution MIC. Format: cell-based. The note with it: for MIC: Escherichia coli, ATCC25922. As to the method:
(§1) A broth microdilution assay is used to assess the antimicrobial activity of the compounds. […] Microorganisms tested include Staphylococcus aureus (ATCC # 29213), Enterococcus faecalis (ATCC # 29212), Pseudomonas aeruginosa (ATCC # 27853), and Escherichia coli (ATCC # 25922). The assay is performed in two growth media, Mueller Hinton Broth and Trypticase Soy Broth. […] Colonies are suspended in sterile broth so that the turbidity matches the turbidity of a 0.5 McFarland standard. The inoculum is diluted 1:10 in sterile broth (Mueller Hinton or Trypticase soy) and 195 ul is dispensed per well of a 96-well plate. The compounds to be tested, dissolved in DMSO, are added to the wells in 5 ul volume at the following concentrations: 25, 12.5, 6.25, 3.125, 1.56 and 0.78 ug/ml in duplicate. Additional concentrations are tested if required. 5 ul of DMSO added to duplicate wells are the vehicle control. Serial dilutions of positive control compounds, vancomycin (E. faecalis and S. aureus) and tobramycin (E. coli and P. aeruginosa), are included in each run. After 24 hours of incubation at 37° C., plates are read at OD600 on a Molecular Devices SpectraMax Plus Spectrophotometer. Average OD600 values are computed using SOFTmax Pro Software (Molecular Devices) and MIC values are determined by linear regression analysis using Prism version 3.02 (Graph Pad Software, San Diego).
(Broth dilution looks for growth in wells or tubes with falling amounts of substance.)

Test [2] relates to Staphylococcus aureus (ATCC # 29213). Nature of the test: Broth microdilution MIC. The following applies: for MIC: Staphylococcus aureus, ATCC29213. It counts as cell-based. On the procedure:
as §1

Test [3] deals with Enterococcus faecalis (ATCC # 29212). Nature of the test: Broth microdilution MIC. The note with it: for MIC: Enterococcus faecalis, ATCC29212. Format: cell-based. As to the method: as §1
Test [4] in a line: Weight loss screen in Balb/C mice. Format: in vivo. The following applies: Mus musculus, read-out: Weight Loss; for change in vivo at 60 mg/kg: ip, 60 mg/kg intraperitoneally. As to the method: Balb/C mice (Jackson Labs) are utilized for the initial weight loss screening. Animals are housed in temperature and 12 hour day/night cycle rooms and fed mouse chow and water ad lib. Three mice are utilized for each compound tested with vehicle controls in triplicate per experiment. For the experiments, mice are housed separately for each compound tested three mice to a cage. […] Mice are observed and weighed daily; average weights and standard errors are computed with Excel (Microsoft). The experiment continues until treated animals reach their pretreatment weights. […]

Test [5] relates to MCF-7 human breast cancer cells. Nature of the test: XTT cytotoxicity assay. Format: cell-based. The following applies: MCF7, MCF-7, 72 hours, some cells marked (M). On the procedure: The XTT assay is a non-radioactive alternative for the [^51 Cr] release cytotoxicity assay. XTT is a tetrazolium salt that is reduced to a formazan dye only by metabolically active, viable cells. The reduction of XTT is measured spectrophotometrically as OD490-OD650.
To measure the cytotoxicity of specific compounds against cancer cells, 9×10^3 MCF-7 human breast cancer cells, obtained from the American Type Culture Collection are plated per well in 96 well plates in DMEM medium with 10% fetal bovine serum, insulin, penicillin, and streptomycin. Following overnight culture at 37° C. and 5% CO2, the compounds to be tested, dissolved in DMSO, are added to the wells in 1 μl volume at the following concentrations: 80, 40, 20, 10, 5, 2.5, 1.25, and 0.625 μg/ml in triplicate. Additional concentrations are tested if required. 1 μl of DMSO is added to triplicate wells are the vehicle control. C75 is run at 40, 20, […], and 5 μg/ml in triplicate as positive controls. After 72 hours of incubation, cells are incubated for 4 hours with the XTT reagent as per manufacturer's instructions (Cell Proliferation Kit II (XTT) Roche). Plates are read at OD490 and OD650 on a Molecular Devices SpectraMax Plus Spectrophotometer. Three wells containing the XTT reagent without cells serve as the plate blank. XTT data are reported as OD490-OD650-Averages and standard error of the mean are computed using SOFTmax Pro software (Molecular Dynamics).
The IC50 for the compounds is defined as the concentration of drug leading to a 50% reduction in OD490-OD650 compared to controls. The OD490-OD650 are computed by the SOFTmax PRO software (Molecular Devices) for each compound concentration. IC50 is calculated by linear regression, plotting the FAS activity as percent of control versus drug concentrations. Linear regression, best-fit line, r^2, and 95% confidence intervals are determined using Prism Version 3.0 (Graph Pad Software).

For test [6] the test system is unchanged. Nature of the test: Crystal violet cell growth assay. The note with it: MCF7, MCF-7, 72 hours, read-out: Cr. Violet(IC50). Format: cell-based. As to the method:
The crystal violet assay measure cell growth but not cytotoxicity. This assay employs crystal violet staining of fixed cells in 96-well plates with subsequent solubilization and measurement of OD490 on a spectrophotometer. The OD490 corresponds to cell growth per unit time measured. Cells are treated with the compounds of interest or vehicle controls and IC50 for each compound is computed.
To measure the cytotoxicity of specific compounds against cancer cells, 5×10^4 MCF-7 human breast cancer cells, obtained from the American Type Culture Collection are plated per well in 24 well plates in DMEM medium with 10% fetal bovine serum, penicillin, and streptomycin. Following overnight culture at 37° C. and 5% CO2, the compounds to be tested, dissolved in DMSO, are added to the wells in 1 μl volume at the following concentrations: 50, 40, 30, 20, and 10 μg/ml in triplicate. Additional concentrations are tested if required. 1 μl of DMSO is added to triplicate wells are the vehicle control. C75 is run at 10, and 5 μg/ml in triplicate as positive controls.
After 72 hours of incubation, cells are stained with 0.5 ml of Crystal Violet stain (0.5% in 25% methanol) in each well. After 10 minutes, wells are rinsed, air dried, and then solubilized with 0.5 ml 10% sodium dodecylsulfate with shaking for 2 hours.

In test [7] the test system is Pseudomonas aeruginosa (ATCC # 27853). Nature of the test: Broth microdilution MIC. Format: cell-based. The following applies: for PSAE/MH(MIC): Mueller Hinton Broth; for PSAE/Tsoy(MIC): Trypticase Soy Broth. As to the method: as §1
[8] abbreviates: Mueller Hinton Broth, read-out: SA/MH(MIC).
Where [9] appears, read: Trypticase Soy Broth, read-out: SA/Tsoy(MIC).
Setting [10] is: Mueller Hinton Broth, read-out: EF/MH(MIC).
The mark [11] stands for this setting: Trypticase Soy Broth, read-out: EF/Tsoy(MIC).

This note sets out measurements from US7649012B2, “Compounds, pharmaceutical compositions containing same, and methods of use for same” (FASgen, Inc., priority 2002, dated 2010).

Converted amounts (≈) assume the structure as drawn. Read-outs that look alike come from different tables or passages of the source. Some results are limits rather than exact numbers.

As usually defined, the IC50 is the midpoint of a concentration-inhibition curve. In the case of `C=C/C(C)=C/C1(C)SC(=O)C=C1O` (stereo not shown), the MIC in test [1] (Mueller Hinton Broth, read-out: Ecoli/MH(MIC)) worked out at 290 µg/mL (≈ 1480 µM); in test [2] (setting [8]), 235 µg/mL (≈ 1200 µM); in test [2] (setting [9]), 102 µg/mL (≈ 520 µM); in test [3] (setting [10]) it was 220 µg/mL (≈ 1120 µM). Also, the change in vivo at 60 mg/kg in test [4] (72 h, day3) amounted to 7.8%. In addition, the IC50 was greater than 80 µg/mL in test [5] and greater than 50 µg/mL in test [6].

For the compound `CCCCCCCCC1(C)SC(=O)C=C1OCC(=O)NNC(C)=O` (stereo not shown), the change in vivo at 60 mg/kg in test [4] (96 h, day4) amounted to 5.9%. The concentration for half-maximal inhibition (IC50) in test [5] amounted to 25.3 µg/mL (≈ 71 µM); in test [6], 28.7 µg/mL (≈ 80.5 µM).

In the case of `CCCCCCCCC1(C)SC(=O)C=C1OCC(=O)NNC(=O)c1ccco1` (stereo not shown), the change in vivo at 60 mg/kg in test [4] (96 h, day4) was determined as 6.3%. The half-maximal inhibitory concentration (IC50) in test [5] was 26.4 µg/mL (≈ 64.6 µM); in test [6], 26.3 µg/mL (≈ 64.4 µM).

Take `C=CCNC(=O)COC1=CC(=O)S[C@]1(C)CCCCCCCCCC` (racemic): the MIC in test [2] (setting [8]) amounted to 28 µg/mL (≈ 76.2 µM); in test [2] (setting [9]), 31 µg/mL (≈ 84.3 µM). The “PSAE/MH(MIC)” value in test [7] is “Neg”. Moreover, the “PSAE/Tsoy(MIC)” value in test [7] is recorded as “Neg”. Further, the change in vivo at 15 mg/kg in test [4] (24 h) was 0%. The change in vivo at 30 mg/kg in test [4] (48 h) is 1.8%. In addition, the figures for the IC50 in test [5] and in test [6] were 12.1 ± 0.6 µg/mL (≈ 32.9 µM) and 10.4 µg/mL (≈ 28.3 µM), respectively.

Consider `CCCCCC[C@@]1(C)SC(=O)C=C1OCC(=O)OCC` (racemic), for which the MIC in test [1] (Trypticase Soy Broth, read-out: Ecoli/Tsoy(MIC)) is 281 µg/mL (≈ 935 µM); in test [2] (setting [9]), 129 µg/mL (≈ 429 µM); in test [3] (setting [10]), 21.3 µg/mL (≈ 70.9 µM). The “Ecoli/MH(MIC)” value in test [1] (Mueller Hinton Broth) is reported as “Neg”. Further, in test [2] (Mueller Hinton Broth), the “SA/MH(MIC)” value is “Neg”. Also, the “PSAE/MH(MIC)” value in test [7] was “Neg”. For the same compound, in test [7], the “PSAE/Tsoy(MIC)” value is “Neg”. The “EF/Tsoy(MIC)” value in test [3] (Trypticase Soy Broth) is on record as “Neg”. Also, the values for the IC50 in test [5] and in test [6] were 39.6 ± 2.2 µg/mL (≈ 132 µM) and 17 µg/mL (≈ 56.6 µM), respectively.

As for `CCCCCCCC[C@@]1(C)SC(=O)C=C1OC(=O)NC(C)C` (racemic), the “Ecoli/MH(MIC)” value in test [1] (Mueller Hinton Broth) is recorded as “Neg”. In test [1] (Trypticase Soy Broth), the “Ecoli/Tsoy(MIC)” value is reported as “Neg”. The MIC came to 32 µg/mL (≈ 97.7 µM) in test [2] (setting [8]), 39 µg/mL (≈ 119 µM) in test [2] (setting [9]), 60 µg/mL (≈ 183 µM) in test [3] (setting [10]) and 64 µg/mL (≈ 195 µM) in test [3] (setting [11]). Besides, the “PSAE/MH(MIC)” value in test [7] was “Neg”. Moreover, the “PSAE/Tsoy(MIC)” value in test [7] is listed as “Neg”. In addition, the IC50 was found to be 45.7 ± 25.9 µg/mL (≈ 140 µM) in test [5] and 22.5 µg/mL (≈ 68.7 µM) in test [6].

Take `CCCCCCCC[C@@]1(C)SC(=O)C=C1OCCCCCl` (racemic): the “Ecoli/MH(MIC)” value in test [1] (Mueller Hinton Broth) is given as “Neg”. For the same compound, the “Ecoli/Tsoy(MIC)” value in test [1] (Trypticase Soy Broth) is recorded as “Neg”. The figures for the MIC in test [2] (setting [8]), in test [2] (setting [9]) and in test [3] (setting [10]) were 115 µg/mL (≈ 345 µM), 134 µg/mL (≈ 402 µM) and 64 µg/mL (≈ 192 µM), respectively. Further, the “PSAE/MH(MIC)” value in test [7] is reported as “Neg”. The “PSAE/Tsoy(MIC)” value in test [7] is given as “Neg”. Further, the “EF/Tsoy(MIC)” value in test [3] (Trypticase Soy Broth) was “Neg”. The IC50 in test [5] was determined as 35.3 ± 2.2 µg/mL (≈ 106 µM); in test [6], 10.3 ± 0.3 µg/mL (≈ 30.9 µM).

Consider `COC1=CC(=O)SC1(C)Cc1ccccc1` (stereo not shown), for which, in test [1] (Mueller Hinton Broth), the “Ecoli/MH(MIC)” value is “Neg”. Also, in test [1] (Trypticase Soy Broth), the “Ecoli/Tsoy(MIC)” value was “Neg”. Further, the MIC in test [2] (setting [8]) is 83 µg/mL (≈ 354 µM); in test [2] (setting [9]) it was 129 µg/mL (≈ 551 µM); in test [3] (setting [10]), 170 µg/mL (≈ 726 µM); in test [3] (setting [11]) it was 189 µg/mL (≈ 807 µM). For the same compound, the “PSAE/MH(MIC)” value in test [7] is “Neg”. For the same compound, the “PSAE/Tsoy(MIC)” value in test [7] is reported as “Neg”. Besides, the 50% inhibitory concentration (IC50) in test [5] is 61.3 ± 3.9 µg/mL (≈ 262 µM); in test [6] it was 20.9 µg/mL (≈ 89.2 µM).
